Assay results taken from ChEMBL document CHEMBL5053519, “Discovery and structure - activity relationship exploration of pyrazolo[1,5-a]pyrimidine derivatives as potent FLT3-ITD inhibitors” (Bioorg Med Chem, 2021).
Calls of active or inactive are those of the source. The rule behind the calls is not given here.

Each compound was assayed against Receptor-type tyrosine-protein kinase FLT3 (Homo sapiens, UniProt P36888, D835Y) (assay: not given). Conditions: not given.

IC50 [nM] | SMILES
0.4 | O=C(Nc1ccc(N2CCOCC2)cc1Br)c1cnn2ccc(N[C@@H]3CCCNC3)nc12
0.3 | O=C(Nc1ccc(N2CCOCC2)cc1C(F)(F)F)c1cnn2ccc(N[C@@H]3CCCNC3)nc12

What follows are compounds tested against Receptor-type tyrosine-protein kinase FLT3 (Homo sapiens) (UniProt P36888) (assay: Inhibition of FLT3 phosphorylation in human MV4-11 cells at 0.1 to 10 nM incubated for 2 hrs by Western blot analysis). Conditions: dose 0.1-10 nM.
Format: cell-based

inhibition | SMILES
Active | O=C(Nc1ccc(N2CCOCC2)cc1C(F)(F)F)c1cnn2ccc(N[C@@H]3CCCNC3)nc12

Each compound was assayed against T1, Receptor-type tyrosine-protein kinase FLT3 (Homo sapiens, UniProt P36888) (assay: not given). Conditions: not given.
T1 sequence (P36888 whole entry): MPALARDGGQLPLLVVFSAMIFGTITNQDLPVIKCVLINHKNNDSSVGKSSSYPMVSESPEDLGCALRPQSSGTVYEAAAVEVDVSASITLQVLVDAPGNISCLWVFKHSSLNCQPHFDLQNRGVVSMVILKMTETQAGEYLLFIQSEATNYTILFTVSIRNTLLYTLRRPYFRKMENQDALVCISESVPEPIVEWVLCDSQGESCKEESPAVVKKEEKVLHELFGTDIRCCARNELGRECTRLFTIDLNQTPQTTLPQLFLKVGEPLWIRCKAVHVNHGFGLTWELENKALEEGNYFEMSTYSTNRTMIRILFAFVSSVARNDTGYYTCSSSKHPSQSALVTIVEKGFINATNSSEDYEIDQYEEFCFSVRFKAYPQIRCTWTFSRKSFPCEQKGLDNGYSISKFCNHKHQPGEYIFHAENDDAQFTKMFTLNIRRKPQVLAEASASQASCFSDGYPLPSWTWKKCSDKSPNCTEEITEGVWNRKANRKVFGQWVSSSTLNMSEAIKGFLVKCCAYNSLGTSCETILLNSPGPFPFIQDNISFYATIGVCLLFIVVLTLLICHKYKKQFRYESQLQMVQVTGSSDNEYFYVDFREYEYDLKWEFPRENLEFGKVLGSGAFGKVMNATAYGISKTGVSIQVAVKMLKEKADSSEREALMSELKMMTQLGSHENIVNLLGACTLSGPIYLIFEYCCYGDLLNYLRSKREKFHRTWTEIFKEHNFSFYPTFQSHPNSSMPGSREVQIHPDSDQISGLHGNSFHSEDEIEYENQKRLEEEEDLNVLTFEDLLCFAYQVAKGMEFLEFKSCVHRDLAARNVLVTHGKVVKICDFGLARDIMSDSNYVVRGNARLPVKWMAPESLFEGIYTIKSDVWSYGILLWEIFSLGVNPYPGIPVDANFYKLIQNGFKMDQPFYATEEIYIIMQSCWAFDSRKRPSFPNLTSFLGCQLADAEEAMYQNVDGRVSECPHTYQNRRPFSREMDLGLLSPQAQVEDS

SMILES | IC50 [nM]
CN(c1ccn2ncc(C(=O)Nc3ccc(N4CCOCC4)cc3C(F)(F)F)c2n1)[C@@H]1CCCNC1 | 160
O=C(Nc1ccc(N2CCOCC2)cc1C(F)(F)F)c1cnn2ccc(NC3CCNCC3)nc12 | 16.5
COc1cc(N2CCN(S(C)(=O)=O)CC2)ccc1NC(=O)c1cnn2ccc(N3CCC[C@@H](N)C3)nc12 | 3.9
CCOc1cc(N2CCOCC2)ccc1NC(=O)c1cnn2ccc(N[C@@H]3CCCNC3)nc12 | 2.7
O=C(Nc1ccc(N2CCOCC2)cc1Br)c1cnn2ccc(N[C@@H]3CCCNC3)nc12 | 0.4
O=C(Nc1ccc(N2CCOCC2)cc1C(F)(F)F)c1cnn2ccc(NC3CNC3)nc12 | 39.9
O=C(Nc1ccc(N2CCOCC2)cc1C(F)(F)F)c1cnn2ccc(N[C@@H]3CCCNC3)nc12 | 0.4
O=C(Nc1ccc(N2CCOCC2)cc1C(F)(F)F)c1cnn2ccc(N[C@H]3CN4CCC3CC4)nc12 | 7

Further lines, results first:

IC50 [nM] | SMILES
1.2 | CSc1cc(N2CCOCC2)ccc1NC(=O)c1cnn2ccc(N[C@@H]3CCCNC3)nc12
8.7 | NC(=O)c1cc(N2CCOCC2)ccc1NC(=O)c1cnn2ccc(N[C@@H]3CCCNC3)nc12
1.4 | Cc1cc(N2CCOCC2)ccc1NC(=O)c1cnn2ccc(N[C@@H]3CCCNC3)nc12
> 1000 | O=C(Nc1ccc(N2CCOCC2)cc1C(F)(F)F)c1cnn2ccc(NC3CCCCC3)nc12
8 | COc1cc(N2CCCCC2)ccc1NC(=O)c1cnn2ccc(N[C@@H]3CCCNC3)nc12
> 1000 | O=C(Nc1ccc(N2CCOCC2)cc1C(F)(F)F)c1cnn2ccc(N[C@H]3CCCNC3)nc12
12 | COc1cc(N2CCN(C)CC2)ccc1NC(=O)c1cnn2ccc(N3CCC[C@@H](N)C3)nc12

What follows are compounds tested against Receptor-type tyrosine-protein kinase FLT3 (Homo sapiens) (UniProt P36888) (assay: not given). Conditions: MV4-11, dose 1.1 nM, time 2.0 hrs.

inhibition [%] | SMILES
100 | O=C(Nc1ccc(N2CCOCC2)cc1C(F)(F)F)c1cnn2ccc(N[C@@H]3CCCNC3)nc12

The compounds below were run on MV4-11 (assay: cells). Conditions: Homo sapiens, MV4-11, 72 h.
Description: Antiproliferative activity against human MV4-11 cells assessed as reduction in cell viability incubated for 72 hrs by CCK8 assay

SMILES | IC50 [nM]
CN(c1ccn2ncc(C(=O)Nc3ccc(N4CCOCC4)cc3C(F)(F)F)c2n1)[C@@H]1CCCNC1 | > 1000
O=C(Nc1ccc(N2CCOCC2)cc1C(F)(F)F)c1cnn2ccc(NC3CCNCC3)nc12 | 28.5
COc1cc(N2CCN(S(C)(=O)=O)CC2)ccc1NC(=O)c1cnn2ccc(N3CCC[C@@H](N)C3)nc12 | 26.5
CCOc1cc(N2CCOCC2)ccc1NC(=O)c1cnn2ccc(N[C@@H]3CCCNC3)nc12 | 9.8
O=C(Nc1ccc(N2CCOCC2)cc1Br)c1cnn2ccc(N[C@@H]3CCCNC3)nc12 | < 0.32
O=C(Nc1ccc(N2CCOCC2)cc1C(F)(F)F)c1cnn2ccc(NC3CNC3)nc12 | 29.5
O=C(Nc1ccc(N2CCOCC2)cc1C(F)(F)F)c1cnn2ccc(N[C@@H]3CCCNC3)nc12 | 1.3
O=C(Nc1ccc(N2CCOCC2)cc1C(F)(F)F)c1cnn2ccc(N[C@H]3CN4CCC3CC4)nc12 | 5.13

Further lines, results first:

IC50 [nM] | SMILES
< 0.32 | CSc1cc(N2CCOCC2)ccc1NC(=O)c1cnn2ccc(N[C@@H]3CCCNC3)nc12
172 | NC(=O)c1cc(N2CCOCC2)ccc1NC(=O)c1cnn2ccc(N[C@@H]3CCCNC3)nc12
7.5 | Cc1cc(N2CCOCC2)ccc1NC(=O)c1cnn2ccc(N[C@@H]3CCCNC3)nc12
> 1000 | O=C(Nc1ccc(N2CCOCC2)cc1C(F)(F)F)c1cnn2ccc(NC3CCCCC3)nc12
9.8 | COc1cc(N2CCCCC2)ccc1NC(=O)c1cnn2ccc(N[C@@H]3CCCNC3)nc12
12.9 | O=C(Nc1ccc(N2CCOCC2)cc1C(F)(F)F)c1cnn2ccc(N[C@H]3CCCNC3)nc12
7 | COc1cc(N2CCN(C)CC2)ccc1NC(=O)c1cnn2ccc(N3CCC[C@@H](N)C3)nc12

Each compound was assayed against Receptor-type tyrosine-protein kinase FLT3 (Homo sapiens, UniProt P36888, ITD) (assay: not given). Conditions: not given.

SMILES | IC50 [nM]
CN(c1ccn2ncc(C(=O)Nc3ccc(N4CCOCC4)cc3C(F)(F)F)c2n1)[C@@H]1CCCNC1 | > 1000
O=C(Nc1ccc(N2CCOCC2)cc1C(F)(F)F)c1cnn2ccc(NC3CCNCC3)nc12 | 6.7
COc1cc(N2CCN(S(C)(=O)=O)CC2)ccc1NC(=O)c1cnn2ccc(N3CCC[C@@H](N)C3)nc12 | 18.7
CCOc1cc(N2CCOCC2)ccc1NC(=O)c1cnn2ccc(N[C@@H]3CCCNC3)nc12 | 4.1
O=C(Nc1ccc(N2CCOCC2)cc1Br)c1cnn2ccc(N[C@@H]3CCCNC3)nc12 | 0.8
O=C(Nc1ccc(N2CCOCC2)cc1C(F)(F)F)c1cnn2ccc(NC3CNC3)nc12 | 30.7
O=C(Nc1ccc(N2CCOCC2)cc1C(F)(F)F)c1cnn2ccc(N[C@@H]3CCCNC3)nc12 | 1
O=C(Nc1ccc(N2CCOCC2)cc1C(F)(F)F)c1cnn2ccc(N[C@H]3CN4CCC3CC4)nc12 | 11.7

Second part, the compound after the results:

IC50 [nM] | SMILES
1.6 | CSc1cc(N2CCOCC2)ccc1NC(=O)c1cnn2ccc(N[C@@H]3CCCNC3)nc12
7.2 | NC(=O)c1cc(N2CCOCC2)ccc1NC(=O)c1cnn2ccc(N[C@@H]3CCCNC3)nc12
1.1 | Cc1cc(N2CCOCC2)ccc1NC(=O)c1cnn2ccc(N[C@@H]3CCCNC3)nc12
> 1000 | O=C(Nc1ccc(N2CCOCC2)cc1C(F)(F)F)c1cnn2ccc(NC3CCCCC3)nc12
69.5 | COc1cc(N2CCCCC2)ccc1NC(=O)c1cnn2ccc(N[C@@H]3CCCNC3)nc12
296 | O=C(Nc1ccc(N2CCOCC2)cc1C(F)(F)F)c1cnn2ccc(N[C@H]3CCCNC3)nc12
3.7 | COc1cc(N2CCN(C)CC2)ccc1NC(=O)c1cnn2ccc(N3CCC[C@@H](N)C3)nc12

What follows are compounds tested on MOLM-13 (assay: cells). Conditions: Homo sapiens, MOLM-13, 72 h.
Description: Antiproliferative activity against human MOLM-13 cells assessed as reduction in cell viability incubated for 72 hrs by CCK8 assay

SMILES | IC50 [nM]
CN(c1ccn2ncc(C(=O)Nc3ccc(N4CCOCC4)cc3C(F)(F)F)c2n1)[C@@H]1CCCNC1 | > 1000
O=C(Nc1ccc(N2CCOCC2)cc1C(F)(F)F)c1cnn2ccc(NC3CCNCC3)nc12 | 155
COc1cc(N2CCN(S(C)(=O)=O)CC2)ccc1NC(=O)c1cnn2ccc(N3CCC[C@@H](N)C3)nc12 | 43.7
CCOc1cc(N2CCOCC2)ccc1NC(=O)c1cnn2ccc(N[C@@H]3CCCNC3)nc12 | 11.4
O=C(Nc1ccc(N2CCOCC2)cc1Br)c1cnn2ccc(N[C@@H]3CCCNC3)nc12 | 0.6
O=C(Nc1ccc(N2CCOCC2)cc1C(F)(F)F)c1cnn2ccc(NC3CNC3)nc12 | 157
O=C(Nc1ccc(N2CCOCC2)cc1C(F)(F)F)c1cnn2ccc(N[C@@H]3CCCNC3)nc12 | 1
O=C(Nc1ccc(N2CCOCC2)cc1C(F)(F)F)c1cnn2ccc(N[C@H]3CN4CCC3CC4)nc12 | 26.3

The remaining lines, values ahead:

IC50 [nM] | SMILES
2.5 | CSc1cc(N2CCOCC2)ccc1NC(=O)c1cnn2ccc(N[C@@H]3CCCNC3)nc12
> 1000 | NC(=O)c1cc(N2CCOCC2)ccc1NC(=O)c1cnn2ccc(N[C@@H]3CCCNC3)nc12
13.8 | Cc1cc(N2CCOCC2)ccc1NC(=O)c1cnn2ccc(N[C@@H]3CCCNC3)nc12
> 1000 | O=C(Nc1ccc(N2CCOCC2)cc1C(F)(F)F)c1cnn2ccc(NC3CCCCC3)nc12
13 | COc1cc(N2CCCCC2)ccc1NC(=O)c1cnn2ccc(N[C@@H]3CCCNC3)nc12
111 | O=C(Nc1ccc(N2CCOCC2)cc1C(F)(F)F)c1cnn2ccc(N[C@H]3CCCNC3)nc12
17 | COc1cc(N2CCN(C)CC2)ccc1NC(=O)c1cnn2ccc(N3CCC[C@@H](N)C3)nc12

Target: Receptor-type tyrosine-protein kinase FLT3 (Homo sapiens) (UniProt P36888)
Assay: not given
Conditions: MV4-11, dose 1.1 nM, time 2.0 hrs
Remark: another data set of the same source

inhibition [%] | SMILES
100 | O=C(Nc1ccc(N2CCOCC2)cc1C(F)(F)F)c1cnn2ccc(N[C@@H]3CCCNC3)nc12

The compounds below were run against Receptor-type tyrosine-protein kinase FLT3 (Homo sapiens) (UniProt P36888) (assay: Inhibition of FLT3 in human MV4-11 cells assessed as suppression of Erk phosphorylation incubated for 2 hrs by Western blot analysis). Conditions: dose 0.1-10 nM.
Format: cell-based

inhibition | SMILES
Dose-dependent effect | O=C(Nc1ccc(N2CCOCC2)cc1C(F)(F)F)c1cnn2ccc(N[C@@H]3CCCNC3)nc12
